# Measurements reported in patent US12709733B2, “Cell culture media” (Merck Patent GmbH, priority 2019, dated 2026).
# Columns and labels:
# [1] = Maximum solubility in water at 25° C. (saturated solution, residual mass after infrared drying); type: physicochemical; settings: for solubility / Solubility 25° C. in g/kg (amino acid) / increase in solubility compared to the respective amino acid / Solubility 25° C. in g/kg (corresponding Lac-AA): 25° C.; for solubility: stated in description; for Solubility 25° C. in g/kg (amino acid) / increase in solubility compared to the respective amino acid / Solubility 25° C. in g/kg (corresponding Lac-AA): water; for Solubility 25° C. in g/kg (amino acid): native amino acid; for Solubility 25° C. in g/kg (corresponding Lac-AA): Lac-AA sodium salt; for maximum solubilities obtained in water: separate experiments comparing Leu, Leu sodium salt and lac-Leu sodium salt
# Experimental: After sedimentation, the solution was dried using infrared (120° C., 120 min) and the residual mass was determined in g/kg.
# [2] = Maximum solubility in Cellvento 4Feed depleted in Ile and Leu (turbidity measurement); type: physicochemical; settings: for solubility at 10 min: aqueous with cosolvent or surfactant or cyclodextrin, thermodynamic from solid, pH 7.0+/-0.2, 25° C., soluble = turbidity below 5 NTU; for solubility at 10 min / times more soluble than the native amino acid in Cellvento 4Feed depleted in Ile/Leu: 113 g/L feed; for times more soluble than the native amino acid in Cellvento 4Feed depleted in Ile/Leu: pH 7.0+/-0.2
# Experimental: Increasing amounts of the Lac-Leu and Lac-Ile and salts thereof were added to a cell culture feed formulation (Cellvento® 4Feed) depleted in Ile and Leu. Similarly, increasing amounts of Ile and Leu were added to the same feed formulation as a control. The total concentration of this feed formulation was 113 g/L and the pH was 7.0+/−0.2. In small scale experiments, after each addition of either the amino acid or the Lac-AA, the feed was agitated for 10 mins and turbidity was measured. The experiments were performed at room temperature (25° C.).
# A solution having a turbidity below 5 NTU is considered soluble.
# [3] = Stability of Lac-AA in Cellvento 4Feed-Ile/Leu by LC-MS; type: physicochemical; settings: stored up to 3 months at 4° C. or RT protected from light
# Experimental: To monitor the stability of Lac-AA in the complex feed mixture, a targeted quantitative LC-MS method was developed. Serial dilutions of Lac-Leu and Lac-Ile in Cellvento® 4Feed—Ile/Leu pH 7.0 were performed from 100 mM to 100 μM to determine the linearity of the method. A 200-fold dilution in water was performed prior to LC-MS analysis. The method was developed on a UHPLC (Vanquish, Thermo Fisher) coupled with an ESI-Q-ToF mass spectrometer (Impact II, Bruker Daltonics).
# Briefly, 1 μL of sample were loaded in 99.9% buffer A (20 mM ammonium formate/0.1% FA) onto a XSelect HSS T3 column (2.1×150 mm, 3.5 μm, Waters) thermostated at 40° C. with a flowrate of 300 μL/min and eluted with a multistep gradient of buffer B (100% methanol) presented in Table 2.
# LC-MS analyses were performed using the Impact II mass spectrometer equipped with an ESI source (Bruker Daltonics). MS acquisition was performed in negative mode with end plate offset and capillary voltages set at 500 and 3500 V, respectively. Nebulizer and dry gas (250° C.) were set at 1.4 bar and 9.0 L/min, respectively. MS spectra were acquired over the m/z range 20-1000 with a scan rate of 5 Hz. […]
# Using the method previously developed, the stability of Lac-Ile and Lac-Leu in Cellvento® 4Feed-Ile/Leu was monitored in samples stored at 4° C. and RT protected from light for 3 months.
# [4] = system: CHOK1GS suspension cell line expressing a human IgG1; experiment: Quality of the antibody produced in the fed-batch process (glycosylation, aggregation/fragmentation, charge variants); type: cell-based; settings: IgG1 purified from supernatant
# Experimental: The quality of the antibody produced in the control fed-batch process (with feed containing Ile and Leu) was compared to the quality of the antibody produced with feed depleted in either Leu and Ile and supplemented with either Lac-Leu or Lac-Ile.
# The antibody was purified from the cell culture supernatant using protein A PhyTips® (PhyNexus Inc, San Jose, CA). Glycosylation patterns were analyzed by capillary gel electrophoresis with laser-induced fluorescence (CGE-LIF) after derivatization using the GlykoPrep®-plus Rapid N-Glycan Sample Preparation kit with 8-aminopyrene-1,3,6-trisulfonic acid trisodium (APTS) (Prozyme, Hayward, CA) according to the manufacturer's instructions. […] After a cleaning step to remove the remaining APTS, the relative amounts of glycans were determined using the Pharmaceutical Analysis System CESI8000 Plus (Sciex, Washington, USA) with a LIF detector (Ex: 488 nm, Em: 520 nm). […]
# Antibody aggregation and fragmentation were measured using size exclusion chromatography on an Water Acquity UPLC system using a TSKgel SuperSW3000 column (Tosoh Bioscience). […] The sample concentration was adjusted to 1.0 mg/mL after the IgG purification using the storage buffer and the detection was performed using the absorbance at 214 nm. […]
# [5] = system: CHODG44 clone producing an IgG1; experiment: Fed-batch experiments with a CHODG44 clone; type: cell-based
# Source text: Results (FIG. 16, 17, 18) indicate a similar VCD and IgG titer for the Lac-Leu and Lac-Ile conditions compared to the control positive control. […] The explanation for this difference in behavior between CHOK1GS cells and this DG44 cell line is currently unknown. The Leu and Ile concentrations in the spent media (FIG. 19 and) decreased during the first day of the FB culture to finally increase again after D7. This behavior is similar to the behavior seen for CHOK1GS cells and indicate a slow release process of the free AA from the derivatives.
# [6] = system: CHOK1GS suspension cell line expressing a human IgG1; experiment: Fed-batch cell culture with Lac-AA replacing the amino acid in the feed, CHOK1GS clone; type: cell-based; settings: for concentration of Ile in the spent medium / concentration of Leu in the spent medium / effect on viable cell density (VCD) compared to positive control: 17-days fed-batch; for effect on viable cell density (VCD) compared to positive control: Lac-AA replacing amino acid in feed; for IgG titer compared to control: day 14; for increase of free lactate (area under the curve of lactate concentration): supernatant over the fed-batch process
# Experimental: For cell culture experiments, a CHOK1GS suspension cell line expressing a human IgG1, was used. Cells were cultivated in quadruplicate in Cellvento® 4CHO medium (Merck Darmstadt, Germany) using 50 mL spin tubes with a starting culture volume of 30 mL and a seeding density of 2×10^5 cells/mL.
# Incubation was carried out at 37° C., 5% CO2, 80% humidity and an agitation of 320 rpm. The Lac-AA were added in the Feed (Cellvento® 4Feed depleted in Ile and leu) instead of their respective amino acids. The pH of all the feeds was neutral (pH 7.0+/−0.2). The positive control contained the normal amino acids whereas the negative control contained the feed depleted in the respective amino acid and without addition of Lac-AA. Feeding was carried out at days 3, 5, 7, 10, 12 and 14 at the following v/v ratios (3, 3, 6, 3, 3 and 3%). Glucose was quantified daily and adjusted to 6 g/L using a 400 g/L glucose solution. The experiment was repeated at least 3 times.
# The viable cell density (VCD) and viability were evaluated with a Vi-CELL XR (Beckman Coulter, Fullerton, CA). Metabolite concentrations were monitored using a Cedex Bio HT (Roche Diagnostics, Mannheim, Germany) based on spectrophotometric and turbidometric methods. Quantification of amino acids was carried out via UPLC after derivatization with the AccQ·TagUltra® reagent kit. Derivatization, chromatography and data analysis were carried out following the supplier recommendations (Waters, Milford, MA).
compound,measurement,setting,value
CC[C@H](C)[C@H](N)C(=O)O [Isoleucine],solubility,[1],32.4 g/kg
same,Solubility 25° C. in g/kg (amino acid),[1],32.4 g/kg
same,solubility at 10 min,[2],~105 mM
"CC[C@H](C)[C@H](NC(=O)C(C)O)C(=O)O (stereo partly drawn) [Lac-Ile, N-lactoyl isoleucine]",stability in Cellvento 4Feed-Ile/Leu,[3],stable
same,increase in solubility compared to the respective amino acid,[1],20 fold
same,"glycosylation, high and low molecular weight species and charge variants of the IgG1 versus control condition",[4],no difference
same,IgG titer compared to positive control,[5],similar
same,VCD compared to positive control,[5],similar
same,turbidity at maximum tested concentration,[2]; 951 mM in Cellvento 4Feed depleted in Ile/Leu,below 5 NTU
same,times more soluble than the native amino acid in Cellvento 4Feed depleted in Ile/Leu,[2],at least 9 times
same,solubility at 10 min,[2],≥ 951 mM
same,concentration of Ile in the spent medium,[6],decreased very rapidly until day 7 and increased again afterwards
same,concentration of Leu in the spent medium,[6],moderately decreased
same,effect on viable cell density (VCD) compared to positive control,[6],no effect on the peak VCD or overall VCD profile
same,IgG titer compared to control,[6],"slight, but not significant higher titer"
same,increase of free lactate (area under the curve of lactate concentration),[6],37%
"CC(C)C[C@H](NC(=O)C(C)O)C(=O)O (stereo partly drawn) [Lac-Leu, N-lactoyl leucine]",stability in Cellvento 4Feed-Ile/Leu,[3],stable
same,increase in solubility compared to the respective amino acid,[1],around 30 fold
same,"glycosylation, high and low molecular weight species and charge variants of the IgG1 versus control condition",[4],no difference
same,IgG titer compared to positive control,[5],similar
same,VCD compared to positive control,[5],similar
same,times more soluble than the native amino acid in Cellvento 4Feed depleted in Ile/Leu,[2],6.6 times
same,solubility at 10 min,[2],~600 mM
same,concentration of Ile in the spent medium,[6],decreased after day 7
same,concentration of Leu in the spent medium,[6],decreased very rapidly until day 7 and increased again afterwards
same,effect on viable cell density (VCD) compared to positive control,[6],positive effect on the duration of the plateau phase
same,viable cell density in plateau phase,[6]; day 10 to day 14,~15 million cells/mL
same,IgG titer compared to control,[6],"slight, but not significant higher titer"
same,increase of free lactate (area under the curve of lactate concentration),[6],20%
CC(O)C(=O)NC(Cc1ccccc1)C(=O)[O-].[Na+] (stereo not drawn) [Lac-Phe sodium salt],Solubility 25° C. in g/kg (corresponding Lac-AA),[1],483.1 g/kg
CC(O)C(=O)NC(Cc1ccc(O)cc1)C(=O)[O-].[Na+] (stereo not drawn) [Lac-Tyr sodium salt],Solubility 25° C. in g/kg (corresponding Lac-AA),[1],101.9 g/kg
CC(C)C[C@H](N)C(=O)[O-].[Na+] [Leu sodium salt],maximum solubilities obtained in water,[1],86.0 g/kg
CC(C)C[C@H](N)C(=O)O [Leucine],solubility,[1],about 22.1 g/kg
same,maximum solubilities obtained in water,[1],22.1 g/kg
same,Solubility 25° C. in g/kg (amino acid),[1],22.1 g/kg
same,solubility at 10 min,[2],~90 mM
CSCC[C@H](N)C(=O)O [Methionine],Solubility 25° C. in g/kg (amino acid),[1],52.9 g/kg
N[C@@H](Cc1ccccc1)C(=O)O [Phenylalanine],Solubility 25° C. in g/kg (amino acid),[1],26.0 g/kg
CC(C)[C@H](N)C(=O)O [Valine],Solubility 25° C. in g/kg (amino acid),[1],57.8 g/kg
